Source: ChEMBL document CHEMBL5226280, “Non-hydroxamate inhibitors of 1-deoxy-d-xylulose 5-phosphate reductoisomerase (DXR): A critical review and future perspective” (Eur J Med Chem, 2021)
Converted amounts (≈) assume the structure as drawn. Each block holds one compound with its values, some of them ahead of it.

Experiments:
[1] = molecular target: T1, 1-deoxy-D-xylulose 5-phosphate reductoisomerase (Escherichia coli K-12, UniProt P45568); assay: Inhibition of Escherichia coli DXR assessed as inhibition constant pre-incubated for 2 mins in presence of NADPH by spectrophotometric assay
T1 sequence (P45568 whole entry): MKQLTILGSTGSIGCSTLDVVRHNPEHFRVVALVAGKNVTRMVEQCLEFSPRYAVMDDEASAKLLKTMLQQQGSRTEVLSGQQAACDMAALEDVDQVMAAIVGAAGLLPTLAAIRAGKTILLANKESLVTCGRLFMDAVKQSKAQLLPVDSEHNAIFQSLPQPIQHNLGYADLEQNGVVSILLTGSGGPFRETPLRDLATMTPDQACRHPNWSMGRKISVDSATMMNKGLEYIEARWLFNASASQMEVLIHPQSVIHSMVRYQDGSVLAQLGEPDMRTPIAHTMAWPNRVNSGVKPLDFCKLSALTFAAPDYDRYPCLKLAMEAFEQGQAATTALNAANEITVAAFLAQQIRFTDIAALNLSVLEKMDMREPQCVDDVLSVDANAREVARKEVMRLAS

[2] = tested on: Escherichia coli; assay: Antimicrobial activity against Escherichia coli deltaGlpT JW2234-2 assessed as minimal inhibitory concentration incubated for 18 hrs by microdilution assay; assay type: functional
[3] = tested on: Escherichia coli; assay: Antimicrobial activity against Escherichia coli BW25113 assessed as minimal inhibitory concentration incubated for 18 hrs by microdilution assay; assay type: functional
[4] = molecular target: T1, 1-deoxy-D-xylulose 5-phosphate reductoisomerase; assay: Inhibition of recombinant Escherichia coli DXR in presence of NADPH
[5] = tested on: Plasmodium falciparum; assay: Antiplasmodial activity against Plasmodium falciparum K1 infected in human erythrocyte assessed as assessed as inhibition of parasite growth; assay type: functional, organism-based
[6] = molecular target: T1, 1-deoxy-D-xylulose 5-phosphate reductoisomerase; assay: Inhibition of His-tagged Escherichia coli DXR using DXP as substrate incubated for 1 min in presence of NADPH by UV-Vis spectrophotometric assay

SMILES: O=C(CCCP(=O)(O)O)NO
IC50 [1]: 0.17 µM

SMILES: CN(O)C(=O)CCCP(=O)(O)O
IC50 [1]: 0.048 µM

SMILES: CN1CC(=O)OB(CCCP(=O)(O)O)OC(=O)C1
MIC90 [2]: 52 µg/mL (≈ 186 µM)
MIC90 [3]: 63 µg/mL (≈ 226 µM)

IC50 [4]: 25 µM
SMILES: CN(O)C(=O)CCCC(=O)O

SMILES: CS(=O)(=O)c1ccccc1NC(=O)CCCP(=O)(O)O
IC50 [5]: > 64 µM

SMILES: O=P(O)(O)CCCB(O)O
MIC90 [2]: 37 µg/mL (≈ 220 µM)
IC50 [6]: 125 µM
MIC90 [3]: 53 µg/mL (≈ 316 µM)

SMILES: CC(=O)c1ccccc1NC(=O)CCCP(=O)(O)O
IC50 [5]: > 64 µM

SMILES: O=C(CCCP(=O)(O)O)Nc1ccccc1F
IC50 [5]: > 64 µM
